Measured values from US12312292B2, “Long chain alkyl esteramine lipid compound, preparation method therefor and application thereof in nucleic acid delivery” (RinuaGene Biotechnology Co., Ltd., priority 2022, dated 2025).

Key:
luciferase mRNA = test: Detection of reporter gene (luciferase mRNA) expression in mice in vivo; set-up: species or system BALB/c female mice; conditions: LNP-delivered luciferase mRNA, quadriceps muscle injection, IVIS 24 h after injection; dose (5 or 14 μg mRNA) not given
Description: The prepared LNP-encapsulated mRNA solution was diluted with PBS buffer to obtain the solution for injection. BALB/c female mice at about 20 g were injected with injection solution at the quadriceps muscle site of mice with an insulin syringe, and each mouse was injected with 50 μL. Two doses were designed: one dose of “5 μg mRNA per 50 μL of injection solution” and the other dose of “14 μg mRNA per 50 μL of injection solution”. BALB/c female mice at about 20 g are injected with PBS buffer at the quadriceps muscle site of mice with an insulin syringe, and each mouse was injected with 50 μL.
After the mice were injected for 24 h, in vivo expression of Luciferase was detected with Perkinelmer's IVIS. The substrate was D-luciferin Sodium salt (GOLDBIO, LUCNA-1G), which was formulated into a concentration of 15 mg/mL with normal saline, filtered and sterilized with a 0.22 μm filter membrane, and stored at −20° C. in aliquots protected from light. Before imaging, each mouse at about 20 g was intraperitoneally injected with 200 μL of substrate solution for 10-20 minutes, and then was anesthetized with isoflurane gas and placed prone on the imaging plate to detect the fluorescence of the animal in vivo, and the results are shown in Table 2.

BALB/c female mice = test: Acute toxicity analysis of lipid molecules (cationic lipid LNP) in BALB/c female mice; conditions: blood 24 h after injection, Ave(SD)
[1] = In vivo expression distribution analysis of delivered luciferase mRNA (RT-PCR in tissues); set-up: species or system C57BL/6J mice; conditions: single intramuscular injection 50 μg; for Exposure in tissues and organs, from high to low: delivered luciferase mRNA, 2 h-336 h, RT-PCR
Description: In order to investigate the distribution features of lipid-delivering mRNA in vivo, we analyzed the distribution features of the reporter luciferase mRNA of the compounds of the present invention in C57BL/6J mice after administration by a single intramuscular injection. The experimental 10 C57BL/6J mice were enrolled, male and female, each administered 50 μg, with SM102 as the control.
Animals in the negative control group were collected at 2 h and 336 h after administration, and animals in the test group were collected at 2 h, 6 h, 24 h, 48 h, 72 h, 120 h, 168 h, and 336 h after administration whole blood, bone marrow, liver, spleen, heart, kidney, inguinal lymph nodes, mesenteric lymph nodes, spleen, brain, stomach, small intestine, non-injection site muscle, injection site muscle tissue, etc. The RNA content in the samples at each time point was detected by RT-PCR, and the lower limit of quantification of the method was […] to reflect the distribution features in C57BL/6J mice.

[2] = mRNA-LNP encapsulation: particle size, PDI and encapsulation rate of LNP; format: physicochemical
Description: The mRNA stock solution was dispersed in 20 mM acetic acid solution (pH 5.0) to a final concentration of 200 μg/mL (aqueous phase). A fat mixture (oil phase) was obtained by mixing under a molar ratio of the exemplary compound:cholesterol:DSPC:DMG-PEG2000=50:38.5:10:1.5. The flow rate of the aqueous phase and the oil phase was controlled by T mixed flow, and the mRNA and lipid mixture were mixed under the volume ratio of 3:1 to obtain LNP-encapsulated mRNA. The encapsulated LNP was diluted 10-fold with buffer, then concentrated by ultrafiltration, and the dilute was displaced, and finally the LNP was concentrated to mRNA being 200 µg/mL, and the pH of the LNP was adjusted to about 7-8. Finally, the Ribogreen kit and 10% OTG were used as demulsifiers to detect the total content of mRNA and the content of […], and the encapsulation rate of LNP was calculated. The LNP final product was diluted 10-fold with diluent, added 1 mL into a particle size cell, and placed on the Malvern ZetaSizer instrument to detect the particle size and PDI of LNP.

[3] = LNP of compound:cholesterol:DSPC:DMG-PEG2000=50:38.5:10:1.5 with mRNA, Malvern ZetaSizer

Row | SMILES | Average fluorescence intensity (luciferase mRNA) [P/s/cm^2/sr] | Alanine aminotransferase (BALB/c female mice; high dose group, 150 μg LNP/pc) [U/L] | Alkaline phosphatase (ALP) (BALB/c female mice; high dose group, 150 μg LNP/pc) [U/L] | Aspartate aminotransferase (BALB/c female mice; high dose group, 150 μg LNP/pc) [U/L] | Creatinine (BALB/c female mice; high dose group, 150 μg LNP/pc) [µmol/L] | γ-Glutamyltransferase (GGT) (BALB/c female mice; high dose group, 150 μg LNP/pc) | Alanine aminotransferase (BALB/c female mice; low dose group, 50 μg/pc) | Alkaline phosphatase (ALP) (BALB/c female mice; low dose group, 50 μg/pc) [U/L] | Aspartate aminotransferase (BALB/c female mice; low dose group, 50 μg/pc) [U/L] | Creatinine (BALB/c female mice; low dose group, 50 μg/pc) [µmol/L] | γ-Glutamyltransferase (GGT) (BALB/c female mice; low dose group, 50 μg/pc) | Exposure in tissues and organs, from high to low [1] | other results
1 | CCCCCCCCCCCOC(=O)CCCCCN(CCCCCO)CCCCCCCC(=O)OC(CCCCCCCC)CCCCCCCC [Example 1] | 1.218E+06 | 38.16 | 112.7 | 125.26 | 12.4 | 0.12 (0.12) U/L | 33.46 (3.54) U/L | 114.38 | 109.92 | 13.8 | 0.22 (0.33) U/L | injection site muscle, inguinal lymph nodes, whole blood, spleen, non-injection site muscle, bone marrow, heart, liver, mesenteric lymph nodes, kidney, small intestine and brain | Total bilirubin (TBIL) (BALB/c female mice; high dose group, 150 μg LNP/pc): 1.56; Total bilirubin (TBIL) (BALB/c female mice; low dose group, 50 μg/pc): 1.18 (0.13)
2 | CCCCCCCCCCCOC(=O)CCCCCN(CCCCCCCO)CCCCCCCC(=O)OC(CCCCCCCC)CCCCCCCC [Example 3] | 8.55E+05 | – | – | – | – | – | – | – | – | – | – | – | –
3 | CCCCCCCCCCCOC(=O)CCCCCN(CCCCCCCCO)CCCCCCCC(=O)OC(CCCCCCCC)CCCCCCCC [Example 4] | 5.47E+05 | – | – | – | – | – | – | – | – | – | – | – | –
4 | CCCCCCCCCCCOC(=O)CCCCCN(CCCCCCCCCO)CCCCCCCC(=O)OC(CCCCCCCC)CCCCCCCC [Example 5] | 5.67E+05 | – | – | – | – | – | – | – | – | – | – | – | –
5 | CCCCCCCCCCCOC(=O)CCCCCN(CCCCCCCCCCO)CCCCCCCC(=O)OC(CCCCCCCC)CCCCCCCC [Example 6] | 5.08E+05 | – | – | – | – | – | – | – | – | – | – | – | –
6 | CCCCCCCCCCCOC(=O)CCCCCN(CCCCCCCCCCCCO)CCCCCCCC(=O)OC(CCCCCCCC)CCCCCCCC [Example 7] | 4.73E+05 | 39.92 | 103.8 | 138.44 | 12.2 | 0.22 (0.04) U/L | 33.56 (5.17) U/L | 107.58 | 109.54 | 13.6 | 0.06 (0.12) U/L | injection site muscle, inguinal lymph nodes, whole blood, spleen, non-injection site muscle, bone marrow, heart, liver, mesenteric lymph nodes, kidney, small intestine and brain | Total bilirubin (TBIL) (BALB/c female mice; high dose group, 150 μg LNP/pc): 1.35; Total bilirubin (TBIL) (BALB/c female mice; low dose group, 50 μg/pc): 1.18 (0.16); Level (distribution) of delivered mRNA in the stomach ([1]; compared with SM-102): higher distribution; Level (distribution) of delivered mRNA in the stomach ([1]; compared with SM-102, listed as compound 7): relatively higher level
7 | CCCCCCCCCCCOC(=O)CCCCCN(CCCCCCCC(=O)OC(CCCCCCCC)CCCCCCCC)C(C)CCCO (stereo not shown) [Example 8] | 1.17E+03 | – | – | – | – | – | – | – | – | – | – | – | –
8 | CCCCCCCCCCCOC(=O)CCCCCN(CCCCCCCC(=O)OC(CCCCCCCC)CCCCCCCC)C(C)CCO (stereo not shown) [Example 9] | 3.74E+05 | 37.25 | 116.9 | 128.26 | 12.1 | 0.18 (0.15) U/L | 35.44 (3.67) U/L | 115.29 | 107.55 | 14.2 | 0.24 (0.37) U/L | inguinal lymph nodes, injection site muscles, non-injection site muscles, whole blood, spleen, bone marrow, mesenteric lymph nodes, heart, liver, kidney, small intestine, stomach and brain | Total bilirubin (TBIL) (BALB/c female mice; high dose group, 150 μg LNP/pc): 1.43; Total bilirubin (TBIL) (BALB/c female mice; low dose group, 50 μg/pc): 1.21 (0.19); Level of delivered mRNA in the small intestine ([1]; compared with SM-102): relatively higher level
9 | CCCCCCCCCCCOC(=O)CCCCCN(CCCCCCCC(=O)OC(CCCCCCCC)CCCCCCCC)CC(C)(C)CO [Example 10] | 7.37E+03 | – | – | – | – | – | – | – | – | – | – | – | –
10 | CCCCCCCCCCCOC(=O)CCCCCN(CCCCCCCC(=O)OC(CCCCCCCC)CCCCCCCC)CC(F)(F)CO [Example 11] | 1.39E+03 | – | – | – | – | – | – | – | – | – | – | – | –
11 | CCCCCCCCCCCOC(=O)CCCCCN(CCCCCCCC(=O)OC(CCCCCCCC)CCCCCCCC)CC1(CO)CC1 [Example 12] | 3.62E+03 | – | – | – | – | – | – | – | – | – | – | – | –
12 | CCCCCCCCCCCOC(=O)CCCCCN(CCCCCCCC(=O)OC(CCCCCCCC)CCCCCCCC)CC1(O)CC1 [Example 13] | 2.78E+05 | 39.99 | 109.84 | 126.77 | 12.4 | 0.18 (0.18) U/L | 36.19 (3.01) U/L | 111.74 | 110.27 | 13.5 | 0.38 (0.41) U/L | inguinal lymph nodes, injection site muscles, non-injection site muscles, whole blood, spleen, bone marrow, mesenteric lymph nodes, heart, liver, kidneys, stomach, small intestine and brain | Total bilirubin (TBIL) (BALB/c female mice; high dose group, 150 μg LNP/pc): 1.34; Total bilirubin (TBIL) (BALB/c female mice; low dose group, 50 μg/pc): 1.18 (0.23); Level (distribution) of delivered mRNA in the stomach ([1]; compared with SM-102): relatively higher level
13 | CCCCCCCCCCCOC(=O)CCCCCN(CCCCCCCC(=O)OC(CCCCCCCC)CCCCCCCC)C1(CO)CC1 [Example 14] | 1.91E+03 | – | – | – | – | – | – | – | – | – | – | – | –
14 | CCCCCCCCCCCOC(=O)CCCCCN(CCCCCCCC(=O)OC(CCCCCCCC)CCCCCCCC)CC1(CO)CCC1 [Example 15] | 1.57E+03 | – | – | – | – | – | – | – | – | – | – | – | –
15 | CCCCCCCCCCCOC(=O)CCCCCN(CCO)CCCCCCCC(=O)OC(CCCCCCCC)CCCCCCCC [SM102, reference compound] | 1.112E+06 | 56.18 | 116.88 | 145.96 | 12.6 | 0.32 (0.22) U/L | 36.04 (2.93) U/L | 131.7 | 121.4 | 14.6 | 0.41 (0.24) U/L | inguinal lymph nodes, injection site muscles, whole blood, non-injection site muscles, spleen, bone marrow, heart, mesenteric lymph nodes, liver, kidney, small intestine, and brain | PDI [2, 3]: 0.1296; Particle size (nm) [2, 3]: 92.16 nm; Encapsulation rate ([2]; LNP-encapsulated mRNA, Ribogreen kit): 95%
